Assay results taken from PMC6540285, “Evaluation of Protein Kinase Inhibitors with PLK4 Cross-Over Potential in a Pre-Clinical Model of Cancer” (International Journal of Molecular Sciences, 2019).

Tests used:
[1] = biological target: DMPK (Homo sapiens, UniProt Q09013); assay: SelectScreen kinase profiling, LanthaScreen binding
[2] = biological target: PI4KB (PI4K beta) (Homo sapiens, UniProt Q9UBF8); assay: SelectScreen kinase profiling, Adapta; format: biochemical
[3] = biological target: PI4K2A (PI4K2 alpha) (Homo sapiens, UniProt Q9BTU6); assay: SelectScreen kinase profiling, Adapta; format: biochemical
[4] = biological target: ROCK2 (Homo sapiens, UniProt O75116); assay: SelectScreen kinase profiling, ZLYTE; format: biochemical; conditions: ROCK2, 10 µM
[5] = biological target: RET M918T (Homo sapiens, UniProt P07949, M918T); assay: SelectScreen kinase profiling, LanthaScreen binding
[6] = biological target: KIT V560G (Homo sapiens, UniProt P10721, V560G); assay: SelectScreen kinase profiling, ZLYTE; format: biochemical
[7] = biological target: EPHA5 (Homo sapiens, UniProt P54756); assay: SelectScreen kinase profiling, ZLYTE; format: biochemical; conditions: EPHA5, 10 µM
[8] = biological target: EPHA7 (Homo sapiens, UniProt Q15375); assay: SelectScreen kinase profiling, LanthaScreen binding; conditions: EPHA7, 10 µM
[9] = biological target: ERBB2 (HER2) (Homo sapiens, UniProt P04626); assay: SelectScreen kinase profiling, ZLYTE; format: biochemical
[10] = biological target: EIF2AK2 (PKR) (Homo sapiens, UniProt P19525); assay: SelectScreen kinase profiling, LanthaScreen binding
[11] = biological target: P450 2B6 (Homo sapiens, UniProt P20813); assay: SelectScreen P450 Vivid biochemical assay; conditions: 10000nM; substrate BOMCC
[12] = biological target: PASK (Homo sapiens, UniProt Q96RG2); assay: SelectScreen kinase profiling, ZLYTE; format: biochemical
[13] = biological target: MAPK9 (JNK2) (Homo sapiens, UniProt P45984); assay: SelectScreen kinase profiling, LanthaScreen binding
[14] = biological target: PDGFRA D842V (Homo sapiens, UniProt P16234, D842V); assay: SelectScreen kinase profiling, ZLYTE; format: biochemical
[15] = biological target: MAP4K1 (HPK1) (Homo sapiens, UniProt Q92918); assay: SelectScreen kinase profiling, LanthaScreen binding
[16] = biological target: PRKCQ (PKC theta) (Homo sapiens, UniProt Q04759); assay: SelectScreen kinase profiling, ZLYTE; format: biochemical
[17] = biological target: FGFR4 (Homo sapiens, UniProt P22455); assay: SelectScreen kinase profiling, ZLYTE; format: biochemical; conditions: FGFR4, 10 µM
[18] = biological target: PIK3CA/PIK3R1 (p110 alpha/p85 alpha) (Homo sapiens, UniProt P42336); assay: SelectScreen kinase profiling, Adapta; format: biochemical; conditions: PIK3CA/PIK3R1, 10 µM
[19] = tested on: RT and MB cells; assay: Beta-galactosidase senescence assay; format: cell-based; conditions: all cell lines
Protocol: Senescence was evaluated using the Beta-galactosidase assay (Senescence Cells Histochemical Staining Kit CS0030 (Sigma, St Louis, MO, USA) and clonogenic recovery assay as previously described.

[20] = biological target: PIK3C3 (hVPS34) (Homo sapiens, UniProt Q8NEB9); assay: SelectScreen kinase profiling, Adapta; format: biochemical
[21] = biological target: MUSK (Homo sapiens, UniProt O15146); assay: SelectScreen kinase profiling, ZLYTE; format: biochemical
[22] = biological target: MAP4K3 (GLK) (Homo sapiens, UniProt Q8IVH8); assay: SelectScreen kinase profiling, LanthaScreen binding
[23] = biological target: CAMK2D (CaMKII delta) (Homo sapiens, UniProt Q13557); assay: SelectScreen kinase profiling, ZLYTE; format: biochemical
[24] = biological target: KIT D820E (Homo sapiens, UniProt P10721, D820E); assay: SelectScreen kinase profiling, LanthaScreen binding
[25] = biological target: HIPK3 (YAK1) (Homo sapiens, UniProt Q9H422); assay: SelectScreen kinase profiling, ZLYTE; format: biochemical
[26] = biological target: BMPR1B (ALK6) (Homo sapiens, UniProt O00238); assay: SelectScreen kinase profiling, LanthaScreen binding
[27] = biological target: RPS6KA6 (RSK4) (Homo sapiens, UniProt Q9UK32); assay: SelectScreen kinase profiling, ZLYTE; format: biochemical
[28] = biological target: MASTL (Homo sapiens, UniProt Q96GX5); assay: SelectScreen kinase profiling, LanthaScreen binding
[29] = biological target: KIT D816V (Homo sapiens, UniProt P10721, D816V); assay: as above
[30] = biological target: LRRK2 R1441C (Homo sapiens, UniProt Q5S007, R1441C); assay: SelectScreen kinase profiling, Adapta; format: biochemical
[31] = biological target: MAP2K5 (MEK5) (Homo sapiens, UniProt Q13163); assay: SelectScreen kinase profiling, LanthaScreen binding
[32] = biological target: CAMKK1 (CAMKKA) (Homo sapiens, UniProt Q8N5S9); assay: as above
[33] = biological target: CDK5/p35 (Homo sapiens, UniProt Q00535); assay: SelectScreen kinase profiling, ZLYTE; format: biochemical; conditions: CDK5/p35, 10 µM
[34] = biological target: HIPK4 (Homo sapiens, UniProt Q8NE63); assay: SelectScreen kinase profiling, ZLYTE; format: biochemical; conditions: HIPK4, 10 µM
[35] = biological target: MATK (HYL) (Homo sapiens, UniProt P42679); assay: SelectScreen kinase profiling, ZLYTE; format: biochemical
[36] = biological target: IRAK4 (Homo sapiens, UniProt Q9NWZ3); assay: SelectScreen kinase profiling, ZLYTE; format: biochemical; conditions: IRAK4, 10 µM
[37] = biological target: CAMK2A (CaMKII alpha) (Homo sapiens, UniProt Q9UQM7); assay: SelectScreen kinase profiling, ZLYTE; format: biochemical
[38] = biological target: ALK F1174L (Homo sapiens, UniProt Q9UM73, F1174L); assay: SelectScreen kinase profiling, LanthaScreen binding
[39] = biological target: GSG2 (Haspin) (Homo sapiens, UniProt Q8TF76); assay: SelectScreen kinase profiling, Adapta; format: biochemical

Sequence of CAMK2D (CaMKII delta) (Q13557 whole entry): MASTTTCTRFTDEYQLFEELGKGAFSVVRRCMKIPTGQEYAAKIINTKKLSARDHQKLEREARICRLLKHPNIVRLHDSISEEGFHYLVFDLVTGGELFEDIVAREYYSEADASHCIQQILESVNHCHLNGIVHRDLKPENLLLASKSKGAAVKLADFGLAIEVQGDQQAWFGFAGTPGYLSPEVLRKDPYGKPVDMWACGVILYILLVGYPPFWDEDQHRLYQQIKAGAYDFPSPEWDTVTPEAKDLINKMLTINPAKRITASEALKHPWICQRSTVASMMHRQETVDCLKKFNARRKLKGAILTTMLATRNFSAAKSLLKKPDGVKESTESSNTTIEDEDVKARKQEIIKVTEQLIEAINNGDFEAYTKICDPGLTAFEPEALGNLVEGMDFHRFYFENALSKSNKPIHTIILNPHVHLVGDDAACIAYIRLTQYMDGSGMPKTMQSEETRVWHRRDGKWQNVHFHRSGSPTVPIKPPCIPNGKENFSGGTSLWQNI
Sequence of KIT V560G (P10721 26-976 V560G): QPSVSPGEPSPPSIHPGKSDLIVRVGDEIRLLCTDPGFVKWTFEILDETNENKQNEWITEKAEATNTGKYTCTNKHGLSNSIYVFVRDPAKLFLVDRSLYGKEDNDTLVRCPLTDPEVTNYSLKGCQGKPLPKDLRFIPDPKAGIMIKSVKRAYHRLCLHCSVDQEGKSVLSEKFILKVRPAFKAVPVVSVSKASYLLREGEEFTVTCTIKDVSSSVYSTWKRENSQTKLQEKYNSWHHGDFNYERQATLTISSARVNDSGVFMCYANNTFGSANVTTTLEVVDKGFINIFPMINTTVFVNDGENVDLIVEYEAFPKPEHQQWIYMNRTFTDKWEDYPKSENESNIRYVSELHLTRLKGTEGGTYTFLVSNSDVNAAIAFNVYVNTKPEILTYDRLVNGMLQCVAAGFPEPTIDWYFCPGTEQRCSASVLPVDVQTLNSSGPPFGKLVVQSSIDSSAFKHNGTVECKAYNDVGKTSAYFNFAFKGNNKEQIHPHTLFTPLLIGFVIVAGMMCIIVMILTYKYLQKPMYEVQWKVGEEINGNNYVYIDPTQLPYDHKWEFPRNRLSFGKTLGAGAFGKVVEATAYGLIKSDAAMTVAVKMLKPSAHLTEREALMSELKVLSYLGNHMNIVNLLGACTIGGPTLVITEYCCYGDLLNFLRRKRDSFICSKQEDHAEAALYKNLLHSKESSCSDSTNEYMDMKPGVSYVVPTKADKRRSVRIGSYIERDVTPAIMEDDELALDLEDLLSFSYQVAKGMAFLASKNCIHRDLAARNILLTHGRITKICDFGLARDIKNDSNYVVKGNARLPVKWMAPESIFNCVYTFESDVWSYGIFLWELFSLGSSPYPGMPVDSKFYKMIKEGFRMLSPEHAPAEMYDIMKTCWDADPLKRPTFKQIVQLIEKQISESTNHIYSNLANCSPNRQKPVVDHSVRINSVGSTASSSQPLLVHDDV
Sequence of MAP4K1 (HPK1) (Q92918 whole entry): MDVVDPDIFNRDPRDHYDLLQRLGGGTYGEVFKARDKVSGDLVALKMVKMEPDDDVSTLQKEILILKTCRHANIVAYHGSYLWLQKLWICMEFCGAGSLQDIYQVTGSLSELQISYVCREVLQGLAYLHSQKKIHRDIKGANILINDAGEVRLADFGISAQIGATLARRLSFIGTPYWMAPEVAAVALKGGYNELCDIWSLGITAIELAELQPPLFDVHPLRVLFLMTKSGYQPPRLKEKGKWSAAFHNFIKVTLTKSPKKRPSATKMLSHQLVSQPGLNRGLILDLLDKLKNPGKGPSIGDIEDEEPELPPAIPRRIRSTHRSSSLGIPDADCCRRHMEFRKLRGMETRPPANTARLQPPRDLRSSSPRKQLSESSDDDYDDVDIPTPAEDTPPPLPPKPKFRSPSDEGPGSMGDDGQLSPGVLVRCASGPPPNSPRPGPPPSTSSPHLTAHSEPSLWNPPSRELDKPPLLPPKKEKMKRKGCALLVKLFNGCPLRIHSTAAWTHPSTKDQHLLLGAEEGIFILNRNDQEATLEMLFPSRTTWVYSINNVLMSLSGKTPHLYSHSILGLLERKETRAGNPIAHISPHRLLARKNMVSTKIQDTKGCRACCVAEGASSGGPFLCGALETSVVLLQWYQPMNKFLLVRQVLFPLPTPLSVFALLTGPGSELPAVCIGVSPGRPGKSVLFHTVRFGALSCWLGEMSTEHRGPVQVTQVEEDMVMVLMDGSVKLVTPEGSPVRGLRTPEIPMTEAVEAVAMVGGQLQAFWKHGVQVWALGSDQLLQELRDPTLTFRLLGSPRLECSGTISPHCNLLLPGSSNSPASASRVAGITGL
Sequence of IRAK4 (Q9NWZ3 whole entry): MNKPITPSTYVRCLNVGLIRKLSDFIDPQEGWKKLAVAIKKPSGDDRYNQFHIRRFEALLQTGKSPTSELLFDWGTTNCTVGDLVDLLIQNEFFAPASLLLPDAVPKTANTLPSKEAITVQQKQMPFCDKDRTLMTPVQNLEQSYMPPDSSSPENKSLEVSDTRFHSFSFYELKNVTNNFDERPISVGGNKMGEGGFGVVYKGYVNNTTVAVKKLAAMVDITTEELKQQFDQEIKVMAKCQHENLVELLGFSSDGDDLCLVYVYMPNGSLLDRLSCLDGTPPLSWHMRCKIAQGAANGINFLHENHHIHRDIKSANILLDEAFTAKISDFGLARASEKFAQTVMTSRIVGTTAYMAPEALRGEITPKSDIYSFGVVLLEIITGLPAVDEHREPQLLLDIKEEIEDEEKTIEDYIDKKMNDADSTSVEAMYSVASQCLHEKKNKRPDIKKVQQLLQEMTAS
Sequence of KIT D816V (P10721 26-976 D816V): as the sequence (P10721 26-976 V560G) above, with G535V, D791V counted along it
Sequence of MAPK9 (JNK2) (P45984 whole entry): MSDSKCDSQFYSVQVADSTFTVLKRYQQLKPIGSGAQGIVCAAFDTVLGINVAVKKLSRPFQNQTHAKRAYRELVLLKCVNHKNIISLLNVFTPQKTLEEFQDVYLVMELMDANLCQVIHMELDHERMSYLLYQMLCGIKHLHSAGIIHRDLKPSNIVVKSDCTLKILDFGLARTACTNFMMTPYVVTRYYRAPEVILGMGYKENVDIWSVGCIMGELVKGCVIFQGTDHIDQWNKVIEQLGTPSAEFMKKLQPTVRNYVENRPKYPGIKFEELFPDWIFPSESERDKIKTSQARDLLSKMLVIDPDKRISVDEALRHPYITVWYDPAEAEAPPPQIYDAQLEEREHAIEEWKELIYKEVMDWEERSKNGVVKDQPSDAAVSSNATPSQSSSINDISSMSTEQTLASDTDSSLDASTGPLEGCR
Sequence of MASTL (Q96GX5 whole entry): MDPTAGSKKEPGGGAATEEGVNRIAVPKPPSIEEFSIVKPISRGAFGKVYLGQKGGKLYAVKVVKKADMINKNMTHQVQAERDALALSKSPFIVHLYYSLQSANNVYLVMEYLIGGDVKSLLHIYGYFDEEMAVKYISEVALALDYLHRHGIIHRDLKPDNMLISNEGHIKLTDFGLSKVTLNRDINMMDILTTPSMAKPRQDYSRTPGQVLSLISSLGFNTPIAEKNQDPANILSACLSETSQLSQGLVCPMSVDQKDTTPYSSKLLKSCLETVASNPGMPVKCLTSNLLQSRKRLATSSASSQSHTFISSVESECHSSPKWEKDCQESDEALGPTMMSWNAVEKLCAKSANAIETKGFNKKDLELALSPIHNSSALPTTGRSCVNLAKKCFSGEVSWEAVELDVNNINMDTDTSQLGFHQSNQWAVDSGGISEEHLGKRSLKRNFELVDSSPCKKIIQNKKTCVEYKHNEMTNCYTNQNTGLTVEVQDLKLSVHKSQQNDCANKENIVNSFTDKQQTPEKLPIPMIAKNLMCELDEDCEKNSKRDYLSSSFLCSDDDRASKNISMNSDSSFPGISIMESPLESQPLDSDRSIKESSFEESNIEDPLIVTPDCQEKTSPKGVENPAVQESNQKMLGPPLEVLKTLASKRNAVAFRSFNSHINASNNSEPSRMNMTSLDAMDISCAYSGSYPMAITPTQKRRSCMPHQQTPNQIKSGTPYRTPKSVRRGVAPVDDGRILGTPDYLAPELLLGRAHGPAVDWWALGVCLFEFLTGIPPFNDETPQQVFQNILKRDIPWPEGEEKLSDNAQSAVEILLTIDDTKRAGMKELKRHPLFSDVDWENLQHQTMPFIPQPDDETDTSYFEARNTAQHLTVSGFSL
Sequence of CAMKK1 (CAMKKA) (Q8N5S9 whole entry): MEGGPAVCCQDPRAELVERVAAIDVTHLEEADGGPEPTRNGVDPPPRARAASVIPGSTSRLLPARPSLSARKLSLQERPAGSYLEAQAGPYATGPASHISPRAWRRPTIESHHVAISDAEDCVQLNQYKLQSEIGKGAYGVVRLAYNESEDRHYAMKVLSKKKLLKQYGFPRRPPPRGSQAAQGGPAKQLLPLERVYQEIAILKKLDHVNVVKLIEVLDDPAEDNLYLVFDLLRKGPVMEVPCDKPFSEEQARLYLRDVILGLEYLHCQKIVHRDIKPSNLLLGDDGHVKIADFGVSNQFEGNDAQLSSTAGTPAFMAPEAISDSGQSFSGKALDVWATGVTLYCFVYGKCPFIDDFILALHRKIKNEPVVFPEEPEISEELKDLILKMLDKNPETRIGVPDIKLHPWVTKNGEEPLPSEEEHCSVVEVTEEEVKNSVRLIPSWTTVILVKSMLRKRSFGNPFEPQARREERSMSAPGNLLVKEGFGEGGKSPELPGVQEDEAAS
Sequence of MAP2K5 (MEK5) (Q13163 whole entry): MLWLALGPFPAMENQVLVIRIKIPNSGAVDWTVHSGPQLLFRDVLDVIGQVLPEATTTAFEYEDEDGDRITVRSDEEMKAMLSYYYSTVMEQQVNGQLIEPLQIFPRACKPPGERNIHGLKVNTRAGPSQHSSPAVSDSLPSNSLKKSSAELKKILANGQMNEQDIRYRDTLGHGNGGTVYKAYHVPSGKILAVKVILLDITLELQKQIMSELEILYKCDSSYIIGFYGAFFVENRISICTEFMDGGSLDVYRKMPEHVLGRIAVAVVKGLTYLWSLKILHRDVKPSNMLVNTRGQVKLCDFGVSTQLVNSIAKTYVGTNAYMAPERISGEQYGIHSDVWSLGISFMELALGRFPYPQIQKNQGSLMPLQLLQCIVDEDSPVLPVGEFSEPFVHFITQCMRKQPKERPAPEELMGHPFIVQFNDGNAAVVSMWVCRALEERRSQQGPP

O=C(c1ccc(/C=C/c2n[nH]c3ccccc23)cc1)N1CCNCC1 [KW-2449]
inhibition at 10 µM [1]: 77%
inhibition at 10 µM [2]: 10%
inhibition at 10 µM [3]: 4%
inhibition at 10 µM [4]: 83%
inhibition at 10 µM [5]: -40%
inhibition at 10 µM [6]: 84%
inhibition at 10 µM [7]: 84%
inhibition at 10 µM [8]: 66%
inhibition at 10 µM [9]: 4%
inhibition at 10 µM [10]: 7%
% Inhibition 2B6 BOMCC [11]: 48%
inhibition at 10 µM [12]: 10%
inhibition at 10 µM [13]: 79%
inhibition at 10 µM [14]: 98%
inhibition at 10 µM [15]: 76%
inhibition at 10 µM [16]: 32%
inhibition at 10 µM [17]: 70%
inhibition at 10 µM [18]: 11%
cell senescence (beta-galactosidase) [19]: dose-dependent induction of cell senescence
inhibition at 10 µM [20]: -3%
inhibition at 10 µM [21]: 90%
inhibition at 10 µM [22]: 72%
inhibition at 10 µM [23]: 96%
inhibition at 10 µM [24]: 81%
inhibition at 10 µM [25]: 53%
inhibition at 10 µM [26]: 90%
inhibition at 10 µM [27]: 97%
inhibition at 10 µM [28]: 83%
inhibition at 10 µM [29]: 40%
inhibition at 10 µM [30]: 100%
inhibition at 10 µM [31]: 84%
inhibition at 10 µM [32]: 69%
inhibition at 10 µM [33]: 94%
inhibition at 10 µM [34]: 85%
inhibition at 10 µM [35]: 37%
inhibition at 10 µM [36]: 77%
inhibition at 10 µM [37]: 67%
inhibition at 10 µM [38]: 56%
inhibition at 10 µM [39]: 74%
